Test results published in ChEMBL document CHEMBL4507318, “Data for DCP probe BAY-985” (2021).

Legend:
[1] = biological target: Casein kinase I isoform alpha (Homo sapiens) (UniProt P48729)
[2] = biological target: Ephrin type-B receptor 1 (Homo sapiens) (UniProt P54762)
[3] = biological target: Mitogen-activated protein kinase kinase kinase kinase 1 (Homo sapiens) (UniProt Q92918)
[4] = biological target: Atypical kinase COQ8A, mitochondrial (Homo sapiens) (UniProt Q8NI60)
[5] = biological target: Mitogen-activated protein kinase kinase kinase kinase 4 (Homo sapiens) (UniProt O95819)
[6] = biological target: Dual specificity mitogen-activated protein kinase kinase 7 (Homo sapiens) (UniProt O14733)
[7] = biological target: Serine/threonine-protein kinase MARK2 (Homo sapiens) (UniProt Q7KZI7)
[8] = biological target: Tyrosine-protein kinase JAK1 (Homo sapiens) (UniProt P23458)
[9] = biological target: Serine/threonine-protein kinase 36 (Homo sapiens) (UniProt Q9NRP7)
[10] = biological target: Ribosomal protein S6 kinase alpha-4 (Homo sapiens) (UniProt O75676)
[11] = tested on: Hepatocyte growth factor receptor (Homo sapiens), P08581 [Y1235D]
[12] = biological target: Serine/threonine-protein kinase DCLK3 (Homo sapiens) (UniProt Q9C098)
[13] = biological target: Alpha-2A adrenergic receptor (Homo sapiens) (UniProt P08913); conditions: Compound concentration 10.0 uM
[14] = biological target: Insulin receptor (Homo sapiens) (UniProt P06213)
[15] = biological target: Receptor-interacting serine/threonine-protein kinase 4 (Homo sapiens) (UniProt P57078)
[16] = biological target: Dual specificity mitogen-activated protein kinase kinase 5 (Homo sapiens) (UniProt Q13163)
[17] = biological target: Ephrin type-B receptor 6 (Homo sapiens) (UniProt O15197)
[18] = biological target: Atypical kinase COQ8B, mitochondrial (Homo sapiens) (UniProt Q96D53)
[19] = biological target: Cyclin-dependent kinase 3 (Homo sapiens) (UniProt Q00526)
[20] = biological target: Phosphorylase b kinase gamma catalytic chain, skeletal muscle/heart isoform (Homo sapiens) (UniProt Q16816)
[21] = biological target: TGF-beta receptor type-2 (Homo sapiens) (UniProt P37173)
[22] = biological target: Dual specificity mitogen-activated protein kinase kinase 3 (Homo sapiens) (UniProt P46734)
[23] = biological target: Epidermal growth factor receptor (Homo sapiens) (UniProt P00533)
[24] = biological target: Dual specificity protein kinase TTK (Homo sapiens) (UniProt P33981)
[25] = biological target: Serine/threonine-protein kinase DCLK2 (Homo sapiens) (UniProt Q8N568)
[26] = biological target: Bone morphogenetic protein receptor type-2 (Homo sapiens) (UniProt Q13873)
[27] = biological target: SNF-related serine/threonine-protein kinase (Homo sapiens) (UniProt Q9NRH2)
[28] = biological target: Serine/threonine-protein kinase pim-3 (Homo sapiens) (UniProt Q86V86)
[29] = biological target: Serine/threonine-protein kinase Chk2 (Homo sapiens) (UniProt O96017)
[30] = tested on: Mast/stem cell growth factor receptor Kit (Homo sapiens), P10721 [L576P]
[31] = biological target: Serine/threonine-protein kinase PAK 6 (Homo sapiens) (UniProt Q9NQU5)
[32] = biological target: Serine/threonine-protein kinase 17A (Homo sapiens) (UniProt Q9UEE5)
[33] = biological target: cGMP-dependent protein kinase 2 (Homo sapiens) (UniProt Q13237)
[34] = biological target: Dual specificity protein kinase CLK2 (Homo sapiens) (UniProt P49760)
[35] = biological target: Mitogen-activated protein kinase kinase kinase 1 (Homo sapiens) (UniProt Q13233)
[36] = biological target: Serine/threonine-protein kinase MAK (Homo sapiens) (UniProt P20794)
[37] = biological target: Serine/threonine-protein kinase ULK2 (Homo sapiens) (UniProt Q8IYT8)
[38] = biological target: SRSF protein kinase 1 (Homo sapiens) (UniProt Q96SB4)
[39] = biological target: Macrophage colony-stimulating factor 1 receptor (Homo sapiens) (UniProt P07333)
[40] = biological target: Ephrin type-B receptor 3 (Homo sapiens) (UniProt P54753)
[41] = biological target: Receptor tyrosine-protein kinase erbB-2 (Homo sapiens) (UniProt P04626)
[42] = biological target: Citron Rho-interacting kinase (Homo sapiens) (UniProt O14578)
[43] = biological target: Dual specificity mitogen-activated protein kinase kinase 1 (Homo sapiens) (UniProt Q02750)
[44] = biological target: Serine/threonine-protein kinase SBK1 (Homo sapiens) (UniProt Q52WX2)
[45] = biological target: cAMP-dependent protein kinase catalytic subunit alpha (Homo sapiens) (UniProt P17612)
[46] = Compound concentration 1000.0 nM
[47] = Compound concentration 100.0 nM

Sequence of Ephrin type-B receptor 1 (Homo sapiens) (P54762 whole entry): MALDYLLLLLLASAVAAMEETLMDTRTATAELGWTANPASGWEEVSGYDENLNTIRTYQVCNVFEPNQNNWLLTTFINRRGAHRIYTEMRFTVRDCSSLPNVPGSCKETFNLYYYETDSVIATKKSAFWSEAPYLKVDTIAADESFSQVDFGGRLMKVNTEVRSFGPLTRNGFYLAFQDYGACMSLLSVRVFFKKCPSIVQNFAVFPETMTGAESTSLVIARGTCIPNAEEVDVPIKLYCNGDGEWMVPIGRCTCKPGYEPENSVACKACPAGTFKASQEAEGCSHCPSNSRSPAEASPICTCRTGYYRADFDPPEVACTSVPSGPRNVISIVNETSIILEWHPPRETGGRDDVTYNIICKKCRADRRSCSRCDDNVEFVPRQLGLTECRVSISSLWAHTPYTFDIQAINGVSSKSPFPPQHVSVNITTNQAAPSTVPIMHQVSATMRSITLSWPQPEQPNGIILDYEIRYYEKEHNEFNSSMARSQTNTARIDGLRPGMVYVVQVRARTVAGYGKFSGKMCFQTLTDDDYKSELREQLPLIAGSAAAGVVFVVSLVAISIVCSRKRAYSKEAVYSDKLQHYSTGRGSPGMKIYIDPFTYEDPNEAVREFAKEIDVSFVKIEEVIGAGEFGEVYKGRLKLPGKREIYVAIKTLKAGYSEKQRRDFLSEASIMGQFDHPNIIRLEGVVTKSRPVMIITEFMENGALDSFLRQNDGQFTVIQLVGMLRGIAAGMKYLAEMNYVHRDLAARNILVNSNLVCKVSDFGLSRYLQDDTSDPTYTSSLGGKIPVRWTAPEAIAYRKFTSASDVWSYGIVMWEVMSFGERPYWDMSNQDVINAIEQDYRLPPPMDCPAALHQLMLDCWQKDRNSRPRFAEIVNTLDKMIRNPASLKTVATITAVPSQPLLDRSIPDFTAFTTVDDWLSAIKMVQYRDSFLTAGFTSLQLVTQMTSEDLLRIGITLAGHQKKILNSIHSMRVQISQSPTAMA
Sequence of Serine/threonine-protein kinase PAK 6 (Homo sapiens) (Q9NQU5 whole entry, looked up): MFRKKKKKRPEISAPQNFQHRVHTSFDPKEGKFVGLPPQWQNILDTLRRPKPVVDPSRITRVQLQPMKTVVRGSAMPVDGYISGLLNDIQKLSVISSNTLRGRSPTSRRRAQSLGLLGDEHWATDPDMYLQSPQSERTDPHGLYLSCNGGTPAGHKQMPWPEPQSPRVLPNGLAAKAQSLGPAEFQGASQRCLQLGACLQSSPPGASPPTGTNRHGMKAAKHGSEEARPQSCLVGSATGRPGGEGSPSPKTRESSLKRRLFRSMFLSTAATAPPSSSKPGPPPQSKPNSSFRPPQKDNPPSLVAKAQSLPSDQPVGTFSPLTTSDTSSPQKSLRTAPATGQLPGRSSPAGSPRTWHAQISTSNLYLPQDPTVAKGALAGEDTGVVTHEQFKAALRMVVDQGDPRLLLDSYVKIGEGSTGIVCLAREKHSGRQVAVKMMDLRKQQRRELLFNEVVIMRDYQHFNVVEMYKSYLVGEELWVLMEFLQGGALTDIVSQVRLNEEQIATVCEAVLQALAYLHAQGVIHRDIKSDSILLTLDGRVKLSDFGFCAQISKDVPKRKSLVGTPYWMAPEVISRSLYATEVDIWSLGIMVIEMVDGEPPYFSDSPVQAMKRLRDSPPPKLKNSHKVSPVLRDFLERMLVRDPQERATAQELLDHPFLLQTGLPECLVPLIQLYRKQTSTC
Sequence of Serine/threonine-protein kinase 17A (Homo sapiens) (Q9UEE5 whole entry): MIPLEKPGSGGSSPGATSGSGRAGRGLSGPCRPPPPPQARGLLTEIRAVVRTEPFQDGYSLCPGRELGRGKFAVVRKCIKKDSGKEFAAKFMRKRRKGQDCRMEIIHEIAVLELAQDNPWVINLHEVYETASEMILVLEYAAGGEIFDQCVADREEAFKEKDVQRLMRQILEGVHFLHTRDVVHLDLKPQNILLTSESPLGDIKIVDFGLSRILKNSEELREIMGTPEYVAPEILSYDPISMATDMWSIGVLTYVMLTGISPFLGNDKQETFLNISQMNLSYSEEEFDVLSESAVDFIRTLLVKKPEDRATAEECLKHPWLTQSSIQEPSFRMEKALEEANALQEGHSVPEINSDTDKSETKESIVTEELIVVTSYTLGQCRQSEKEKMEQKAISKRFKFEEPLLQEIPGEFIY
Sequence of Dual specificity protein kinase TTK (Homo sapiens) (P33981 whole entry): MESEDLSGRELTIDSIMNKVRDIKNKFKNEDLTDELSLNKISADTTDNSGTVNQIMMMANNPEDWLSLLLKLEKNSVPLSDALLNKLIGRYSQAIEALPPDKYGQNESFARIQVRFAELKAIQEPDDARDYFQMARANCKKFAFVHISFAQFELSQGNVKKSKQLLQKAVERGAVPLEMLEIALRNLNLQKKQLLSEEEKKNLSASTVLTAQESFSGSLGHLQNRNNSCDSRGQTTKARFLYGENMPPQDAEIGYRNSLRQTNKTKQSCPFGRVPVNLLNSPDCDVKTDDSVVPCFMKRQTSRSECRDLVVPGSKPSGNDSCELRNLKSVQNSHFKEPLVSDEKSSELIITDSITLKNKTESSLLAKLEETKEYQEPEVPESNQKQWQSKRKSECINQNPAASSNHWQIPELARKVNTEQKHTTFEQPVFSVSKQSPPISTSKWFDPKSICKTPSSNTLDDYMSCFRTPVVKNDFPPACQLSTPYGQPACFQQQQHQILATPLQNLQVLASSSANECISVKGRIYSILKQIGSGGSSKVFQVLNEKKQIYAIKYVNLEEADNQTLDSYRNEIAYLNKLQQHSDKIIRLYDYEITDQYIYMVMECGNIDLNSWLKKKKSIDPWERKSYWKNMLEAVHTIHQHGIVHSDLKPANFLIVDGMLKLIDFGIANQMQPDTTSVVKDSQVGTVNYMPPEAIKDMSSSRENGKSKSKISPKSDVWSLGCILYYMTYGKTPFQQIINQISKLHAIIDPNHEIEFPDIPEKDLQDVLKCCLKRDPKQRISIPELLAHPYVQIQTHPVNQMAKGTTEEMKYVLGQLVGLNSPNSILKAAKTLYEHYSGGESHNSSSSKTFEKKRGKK
Sequence of Ephrin type-B receptor 6 (Homo sapiens) (O15197 whole entry): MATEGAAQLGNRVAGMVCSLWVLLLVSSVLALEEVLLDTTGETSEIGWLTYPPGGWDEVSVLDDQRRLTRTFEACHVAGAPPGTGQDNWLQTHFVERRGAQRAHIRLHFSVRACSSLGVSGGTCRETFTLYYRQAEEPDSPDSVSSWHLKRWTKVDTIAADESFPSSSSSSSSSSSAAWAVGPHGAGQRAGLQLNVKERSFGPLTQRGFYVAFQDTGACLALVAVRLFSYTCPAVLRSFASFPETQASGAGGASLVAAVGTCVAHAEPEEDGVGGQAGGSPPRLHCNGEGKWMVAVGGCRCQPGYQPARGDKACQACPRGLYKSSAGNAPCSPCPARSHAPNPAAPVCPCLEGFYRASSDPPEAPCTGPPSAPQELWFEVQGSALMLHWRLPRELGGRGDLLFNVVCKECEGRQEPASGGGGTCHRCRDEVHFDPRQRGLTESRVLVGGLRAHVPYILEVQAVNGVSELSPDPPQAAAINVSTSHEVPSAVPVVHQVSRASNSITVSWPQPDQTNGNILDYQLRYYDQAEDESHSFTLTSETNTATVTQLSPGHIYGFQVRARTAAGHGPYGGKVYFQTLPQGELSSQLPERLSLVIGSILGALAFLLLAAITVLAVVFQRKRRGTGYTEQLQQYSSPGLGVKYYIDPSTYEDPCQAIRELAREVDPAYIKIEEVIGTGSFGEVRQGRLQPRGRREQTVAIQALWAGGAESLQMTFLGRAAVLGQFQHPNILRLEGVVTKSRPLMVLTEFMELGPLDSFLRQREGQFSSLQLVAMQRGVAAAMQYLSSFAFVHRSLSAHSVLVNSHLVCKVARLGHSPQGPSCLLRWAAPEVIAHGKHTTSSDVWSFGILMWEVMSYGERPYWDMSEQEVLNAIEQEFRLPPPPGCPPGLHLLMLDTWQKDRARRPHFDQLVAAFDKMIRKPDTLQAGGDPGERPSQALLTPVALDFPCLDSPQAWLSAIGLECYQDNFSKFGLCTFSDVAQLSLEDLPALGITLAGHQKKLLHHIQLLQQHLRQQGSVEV
Sequence of Ribosomal protein S6 kinase alpha-4 (Homo sapiens) (O75676 whole entry, looked up): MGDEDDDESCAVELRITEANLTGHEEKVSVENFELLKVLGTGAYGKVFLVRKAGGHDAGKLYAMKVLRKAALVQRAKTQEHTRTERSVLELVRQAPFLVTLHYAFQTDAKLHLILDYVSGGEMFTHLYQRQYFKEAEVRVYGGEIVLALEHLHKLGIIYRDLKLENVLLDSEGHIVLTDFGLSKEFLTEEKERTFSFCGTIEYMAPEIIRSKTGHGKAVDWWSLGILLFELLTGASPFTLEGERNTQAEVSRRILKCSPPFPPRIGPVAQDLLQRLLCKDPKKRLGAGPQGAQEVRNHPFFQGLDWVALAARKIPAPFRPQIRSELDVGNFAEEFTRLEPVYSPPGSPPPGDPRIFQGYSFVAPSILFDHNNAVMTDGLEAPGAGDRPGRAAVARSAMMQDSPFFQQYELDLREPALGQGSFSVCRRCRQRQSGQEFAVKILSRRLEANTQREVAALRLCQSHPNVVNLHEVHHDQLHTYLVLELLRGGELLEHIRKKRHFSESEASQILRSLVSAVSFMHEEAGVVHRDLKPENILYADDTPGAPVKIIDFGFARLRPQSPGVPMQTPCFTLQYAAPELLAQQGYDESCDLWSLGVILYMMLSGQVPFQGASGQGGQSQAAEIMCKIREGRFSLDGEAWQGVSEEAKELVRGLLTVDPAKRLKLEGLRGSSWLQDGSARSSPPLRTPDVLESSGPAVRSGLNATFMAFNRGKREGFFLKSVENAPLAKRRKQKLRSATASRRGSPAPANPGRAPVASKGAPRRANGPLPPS
Sequence of Cyclin-dependent kinase 3 (Homo sapiens) (Q00526 whole entry, looked up, canonical isoform): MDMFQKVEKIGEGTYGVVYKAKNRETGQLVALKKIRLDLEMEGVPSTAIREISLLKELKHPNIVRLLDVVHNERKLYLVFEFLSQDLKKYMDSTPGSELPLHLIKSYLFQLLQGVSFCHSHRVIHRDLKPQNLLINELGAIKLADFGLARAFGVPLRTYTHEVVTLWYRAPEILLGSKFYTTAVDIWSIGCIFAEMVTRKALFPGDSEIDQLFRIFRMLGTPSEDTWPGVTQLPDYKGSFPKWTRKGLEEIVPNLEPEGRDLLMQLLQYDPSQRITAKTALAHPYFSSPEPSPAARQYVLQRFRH

Q: Which residual activity [1, 46] does the source give for `CN(C)c1ncnc(-c2ccc3nc(Nc4cc(CN5CCN(C(=O)CC(F)(F)F)CC5)ccn4)[nH]c3c2)c1Cl` [BAY-440] here?
A: 89%

Q: What about the residual activity [2, 46] of the same compound?
A: 97%

Q: What about the residual activity [3, 46] of the same compound?
A: 91%

Q: What about the residual activity [4, 46] of the same compound?
A: 100%

Q: And the residual activity [5, 46]?
A: 100%

Q: And the residual activity [6, 46]?
A: 100%

Q: And the residual activity [7, 46]?
A: 68%

Q: And the residual activity [8, 46]?
A: 68%

Q: What about the residual activity [9, 46] of the same compound?
A: 98%

Q: And the residual activity [10, 46]?
A: 80%

Q: What about the residual activity [11, 46] of the same compound?
A: 68%

Q: What about the residual activity [12, 46] of the same compound?
A: 92%

Q: And the inhibition [13]?
A: 15.7%

Q: And the residual activity [14, 46]?
A: 100%

Q: What about the residual activity [15, 46] of the same compound?
A: 100%

Q: And the residual activity [16, 46]?
A: 1.8%

Q: And the residual activity [17, 46]?
A: 69%

Q: What about the residual activity [18, 46] of the same compound?
A: 90%

Q: What about the residual activity [19, 46] of the same compound?
A: 86%

Q: What about the residual activity [20, 46] of the same compound?
A: 96%

Q: What about the residual activity [21, 46] of the same compound?
A: 85%

Q: What about the residual activity [22, 46] of the same compound?
A: 73%

Q: And the residual activity [23, 46]?
A: 100%

Q: What about the residual activity [24, 46] of the same compound?
A: 100%

Q: What about the residual activity [25, 46] of the same compound?
A: 100%

Q: And the residual activity [26, 46]?
A: 61%

Q: And the residual activity [27, 46]?
A: 100%

Q: And the residual activity [28, 46]?
A: 100%

Q: What about the residual activity [29, 46] of the same compound?
A: 100%

Q: What about the residual activity [30, 46] of the same compound?
A: 87%

Q: And the residual activity [31, 46]?
A: 100%

Q: What about the residual activity [32, 46] of the same compound?
A: 34%

Q: What about the residual activity [33, 46] of the same compound?
A: 40%

Q: And the residual activity [34, 46]?
A: 90%

Q: What about the residual activity [35, 46] of the same compound?
A: 100%

Q: What about the residual activity [36, 46] of the same compound?
A: 100%

Q: And the residual activity [37, 46]?
A: 64%

Q: What about the residual activity [38, 46] of the same compound?
A: 47%

Q: And the residual activity [39, 46]?
A: 100%

Q: What about the residual activity [40, 46] of the same compound?
A: 100%

Q: What about the residual activity [41, 46] of the same compound?
A: 87%

Q: And the residual activity [42, 46]?
A: 100%

Q: What about the residual activity [43, 46] of the same compound?
A: 78%

Q: And the residual activity [44, 46]?
A: 71%

Q: And the residual activity [45, 46]?
A: 100%

Q: How did the residual activity [1, 47] turn out when `C[C@H](c1ccnc(Nc2nc3ccc(-c4cc(N(C)C)ncn4)cc3[nH]2)c1)N1CCN(C(=O)CC(F)(F)F)CC1` [BAY-985] was run?
A: 100%

Q: And the residual activity [2, 47]?
A: 98%

Q: What about the residual activity [3, 47] of the same compound?
A: 51%

Q: What about the residual activity [4, 47] of the same compound?
A: 100%

Q: And the residual activity [5, 47]?
A: 91%

Q: What about the residual activity [6, 47] of the same compound?
A: 92%

Q: And the residual activity [7, 47]?
A: 100%

Q: What about the residual activity [8, 47] of the same compound?
A: 100%

Q: What about the residual activity [9, 47] of the same compound?
A: 97%

Q: And the residual activity [10, 47]?
A: 100%

Q: And the residual activity [11, 47]?
A: 100%

Q: What about the residual activity [12, 47] of the same compound?
A: 100%

Q: What about the inhibition [13] of the same compound?
A: 24.2%

Q: And the residual activity [14, 47]?
A: 100%

Q: What about the residual activity [15, 47] of the same compound?
A: 100%

Q: What about the residual activity [16, 47] of the same compound?
A: 8.5%

Q: What about the residual activity [17, 47] of the same compound?
A: 100%

Q: And the residual activity [18, 47]?
A: 79%

Q: What about the residual activity [19, 47] of the same compound?
A: 100%

Q: And the residual activity [20, 47]?
A: 100%

Q: What about the residual activity [21, 47] of the same compound?
A: 98%

Q: What about the residual activity [22, 47] of the same compound?
A: 97%

Q: What about the residual activity [23, 47] of the same compound?
A: 97%

Q: What about the residual activity [24, 47] of the same compound?
A: 82%

Q: And the residual activity [25, 47]?
A: 85%

Q: And the residual activity [26, 47]?
A: 100%

Q: And the residual activity [27, 47]?
A: 100%

Q: What about the residual activity [28, 47] of the same compound?
A: 87%

Q: And the residual activity [29, 47]?
A: 84%

Q: What about the residual activity [30, 47] of the same compound?
A: 91%

Q: And the residual activity [31, 47]?
A: 100%

Q: And the residual activity [32, 47]?
A: 40%

Q: And the residual activity [33, 47]?
A: 94%

Q: What about the residual activity [34, 47] of the same compound?
A: 65%

Q: And the residual activity [35, 47]?
A: 100%

Q: What about the residual activity [36, 47] of the same compound?
A: 100%

Q: What about the residual activity [37, 47] of the same compound?
A: 100%

Q: What about the residual activity [38, 47] of the same compound?
A: 85%

Q: What about the residual activity [39, 47] of the same compound?
A: 100%

Q: And the residual activity [40, 47]?
A: 93%

Q: And the residual activity [41, 47]?
A: 100%

Q: And the residual activity [42, 47]?
A: 78%

Q: What about the residual activity [43, 47] of the same compound?
A: 99%

Q: And the residual activity [44, 47]?
A: 85%

Q: And the residual activity [45, 47]?
A: 100%
